Measurements from PMC10145973, “Genomic Insights into Bacterial Resistance to Proline-Rich Antimicrobial Peptide Bac7” (Membranes, 2023).
≈ marks a conversion by molar mass, not a printed value. Where a SMILES comes first, the peptide text is derived from it. Bridges are numbered along the chain shown (N, C = ends).

Key:
E. coli MDR 1057 WT [1] = conditions: Table 2; broth microdilution in MHB (medium ±0.9% NaCl not given), 10^6 CFU/mL suspension, agents diluted in 0.1% BSA, 24 h, 37 °C, visible turbidity; median of at least three independent experiments in triplicate
E. coli MDR 1057 B2 [2] = conditions: Table 2; broth microdilution in MHB (medium ±0.9% NaCl not given), 0.1% BSA, 24 h, 37 °C; median of at least three independent experiments in triplicate
E. coli MDR 1057 B3 [3] = conditions: Table 2; broth microdilution in MHB (medium ±0.9% NaCl not given), 0.1% BSA, 24 h, 37 °C; median of at least three independent experiments in triplicate
E. coli MDR 1057 P1 [4] = conditions: Table 2; broth microdilution in MHB (medium ±0.9% NaCl not given), 0.1% BSA, 24 h, 37 °C; median of at least three independent experiments in triplicate
E. coli MDR 1057 WT [5] = assay: microbe, parasite or virus in culture; conditions: Escherichia coli, MDR1057WT, 24 h, read-out: Minimum Inhibitory Concentration, WT
E. coli MDR 1057 B2 [6] = assay: microbe, parasite or virus in culture; conditions: Escherichia coli, MDR1057B2, 24 h, read-out: Minimum Inhibitory Concentration, B2
E. coli MDR 1057 B3 [7] = assay: microbe, parasite or virus in culture; conditions: Escherichia coli, MDR1057B3, 24 h, read-out: Minimum Inhibitory Concentration, B3
E. coli MDR 1057 P1 [8] = assay: microbe, parasite or virus in culture; conditions: Escherichia coli, MDR1057P1, 24 h, read-out: Minimum Inhibitory Concentration, P1

| SMILES | Minimum Inhibitory Concentration, WT (E. coli MDR 1057 WT [1]) [µM] | Minimum Inhibitory Concentration, B2 (E. coli MDR 1057 B2 [2]) [µM] | Minimum Inhibitory Concentration, B3 (E. coli MDR 1057 B3 [3]) [µM] | Minimum Inhibitory Concentration, P1 (E. coli MDR 1057 P1 [4]) [µM] | MIC (E. coli MDR 1057 WT [5]) [µM] | MIC (E. coli MDR 1057 B2 [6]) [µM] | MIC (E. coli MDR 1057 B3 [7]) [µM] | MIC (E. coli MDR 1057 P1 [8]) [µM] |
| --- | --- | --- | --- | --- | --- | --- | --- | --- |
| CC[C@H](C)[C@H](NC(=O)[C@H](CCCCN)NC(=O)[C@H](CCC(=O)O)NC(=O)[C@H](CCCCN)NC(=O)[C@H](CO)NC(=O)[C@H](CCCCN)NC(=O)[C@H](CCCNC(=N)N)NC(=O)[C@H](Cc1ccccc1)NC(=O)[C@H](Cc1ccccc1)NC(=O)[C@H](CC(=O)O)NC(=O)CNC(=O)[C@H](CC(C)C)NC(=O)[C@@H](N)CC(C)C)C(=O)NCC(=O)N[C@@H](CCCCN)C(=O)N[C@@H](CCC(=O)O)C(=O)N[C@@H](Cc1ccccc1)C(=O)N[C@@H](CCCCN)C(=O)N[C@@H](CCCNC(=N)N)C(=O)N[C@H](C(=O)N[C@H](C(=O)N[C@@H](CCC(N)=O)C(=O)N[C@@H](CCCNC(=N)N)C(=O)N[C@H](C(=O)N[C@@H](CCCCN)C(=O)N[C@@H](CC(=O)O)C(=O)N[C@@H](Cc1ccccc1)C(=O)N[C@@H](CC(C)C)C(=O)N[C@@H](CCCNC(=N)N)C(=O)N[C@@H](CC(N)=O)C(=O)N[C@@H](CC(C)C)C(=O)N[C@H](C(=O)N1CCC[C@H]1C(=O)N[C@@H](CCCNC(=N)N)C(=O)N[C@H](C(=O)N[C@@H](CCC(=O)O)C(=O)N[C@@H](CO)C(=O)O)[C@@H](C)O)C(C)C)[C@@H](C)CC)C(C)C)[C@@H](C)CC [LL-37] | 4 | 2 | 2 | 1 |  |  |  |  |
| CO[C@H]1/C=C/O[C@@]2(C)Oc3c(C)c(O)c4c(O)c(c(/C=N/N5CCN(C)CC5)c(O)c4c3C2=O)NC(=O)/C(C)=C\C=C\[C@H](C)[C@H](O)[C@@H](C)[C@@H](O)[C@@H](C)[C@H](OC(C)=O)[C@@H]1C [Rifampicin] |  |  |  |  | 64 (≈ 52.7 µg/mL) | 128 (≈ 105 µg/mL) | 64 (≈ 52.7 µg/mL) | 64 (≈ 52.7 µg/mL) |
| CC(C)C[C@H](NC(=O)[C@H](CCCNC(=N)N)NC(=O)[C@@H]1CCCN1C(=O)[C@@H]1CCCN1C(=O)[C@H](Cc1ccccc1)NC(=O)[C@H](Cc1ccccc1)NC(=O)[C@@H]1CCCN1C(=O)[C@@H]1CCCN1C(=O)[C@@H]1CCCN1C(=O)[C@H](CCCNC(=N)N)NC(=O)[C@@H]1CCCN1C(=O)[C@H](CCCNC(=N)N)NC(=O)[C@@H]1CCCN1C(=O)[C@H](CC(C)C)NC(=O)[C@H](Cc1ccc(O)cc1)NC(=O)[C@@H]1CCCN1C(=O)[C@@H]1CCCN1C(=O)[C@H](CCCNC(=N)N)NC(=O)[C@@H]1CCCN1C(=O)[C@H](CCCNC(=N)N)NC(=O)[C@H](CCCNC(=N)N)NC(=O)[C@@H](N)CCCNC(=N)N)C(=O)O [PR-39_1-22] (H-RRRPRPPYLPRPRPPPFFPPRL-OH) | 2 | >32 | >32 | 16 |  |  |  |  |
| CNC(C)C1CCC(N)C(OC2C(N)CC(N)C(OC3OCC(C)(O)C(NC)C3O)C2O)O1 (centres unmarked) [Gentamicin] |  |  |  |  | 2 (≈ 0.955 µg/mL) | 2 (≈ 0.955 µg/mL) | 2 (≈ 0.955 µg/mL) | 4 (≈ 1.91 µg/mL) |
| CO/N=C(\C(=O)N[C@@H]1C(=O)N2C(C(=O)O)=C(CSc3nc(=O)c(=O)[nH]n3C)CS[C@H]12)c1csc(N)n1 [Ceftriaxone] |  |  |  |  | 128 (≈ 71 µg/mL) | 128 (≈ 71 µg/mL) | 128 (≈ 71 µg/mL) | 128 (≈ 71 µg/mL) |
| CC(C)C[C@H](NC(=O)[C@H](CCCNC(=N)N)NC(=O)CNC(=O)CNC(=O)[C@@H](N)CCCNC(=N)N)C(=O)N[C@H]1CSSC[C@@H](C(=O)N[C@H](C(=O)NCC(=O)N[C@@H](CCCNC(=N)N)C(=O)O)C(C)C)NC(=O)[C@H](C(C)C)NC(=O)[C@@H]2CSSC[C@H](NC(=O)[C@H](Cc3ccc(O)cc3)NC1=O)C(=O)N[C@@H](CCCNC(=N)N)C(=O)N[C@@H](CCCNC(=N)N)C(=O)N[C@@H](CCCNC(=N)N)C(=O)N[C@@H](Cc1ccccc1)C(=O)N2 [Protegrin-1] (H-RGGRLCYCRRRFCVCVGR-OH; disulfide 6-15, 8-13; N-terminus and C-terminus assumed) | 0.25 | 0.25 | 0.25 | 0.25 |  |  |  |  |
| CC[C@H](C)[C@H](NC(=O)[C@@H]1CCCN1C(=O)CNC(=O)[C@@H](NC(=O)[C@H](Cc1ccccc1)NC(=O)[C@@H]1CCCN1C(=O)CNC(=O)[C@@H](NC(=O)[C@H](CCCCN)NC(=O)[C@H](Cc1c[nH]cn1)NC(=O)[C@H](Cc1c[nH]c2ccccc12)NC(=O)[C@H](CC(C)C)NC(=O)[C@H](CCCNC(=N)N)NC(=O)[C@H](CCCCN)NC(=O)[C@H](CC(C)C)NC(=O)[C@H](CCCCN)NC(=O)[C@H](CCCCN)NC(=O)[C@H](CCCNC(=N)N)NC(=O)[C@H](Cc1ccccc1)NC(=O)[C@H](CCCNC(=N)N)NC(=O)[C@H](CCCCN)NC(=O)[C@H](Cc1ccccc1)NC(=O)[C@H](CCCNC(=N)N)NC(=O)CN)C(C)C)C(C)C)C(=O)N[C@@H](CC(C)C)C(=O)N[C@@H](Cc1c[nH]cn1)C(=O)N[C@@H](Cc1ccc(O)cc1)C(=O)O [ChMAP-28] (H-GRFKRFRKKLKRLWHKVGPFVGPILHY-OH) | 0.063 | 0.063 | 0.063 | 0.063 |  |  |  |  |
| CC(C)[C@@H]1NC(=O)[C@H](Cc2ccc(O)cc2)NC(=O)[C@H](Cc2c[nH]c3ccccc23)NC(=O)[C@@H](NC(=O)[C@H](Cc2ccccc2)NC(=O)CN)CSSC[C@@H](C(=O)N[C@@H](CC(N)=O)C(=O)O)NC(=O)[C@H](CCCNC(=N)N)NC(=O)[C@H](CCCNC(=N)N)NC(=O)[C@H](Cc2ccc(O)cc2)NC(=O)[C@@H]2CSSC[C@H](NC1=O)C(=O)N[C@@H](C)C(=O)N[C@@H](CCCNC(=N)N)C(=O)N[C@@H](CCCNC(=N)N)C(=O)N[C@@H](CC(N)=O)C(=O)NCC(=O)N[C@@H](C)C(=O)N[C@@H](CCCNC(=N)N)C(=O)N[C@@H](C(C)C)C(=O)N2 [AA139] (H-GFCWYVCARRNGARVCYRRCN-OH; disulfide 3-20, 7-16 (inferred)) | 0.25 | 0.25 | 1 | 0.5 |  |  |  |  |
